The values that follow come from patent US20220280647A1, “Hydrophobic Peptide Salts for Extended Release Compositions” (BIOMARIN PHARMACEUTICAL INC., priority 2019, published 2022).

Where no end group is shown, it is not given here.

The test system of one data set is PRKG2. The settings on record: previous activation data (Campbell 2017; Vaandrager 1997; Pohler 1995); cited from earlier work.
The conditions of data set [1]: pH 9. As for the experimental part:
To make hydrophobic CNP salts, including CNP variants, CNP-acetate is placed into water or a buffer. In a first experiment, a stock solution comprising CNP at 20 mg/mL in water was prepared. […] Disodium pamoic acid, oleic acid, or sodium docusate were placed in a buffer at a concentration that is in a molar excess to the number of oppositely charged groups on CNP, in this instance a 12 molar excess of counterion to CNP. CNP has 6 positively charged groups at pH 7, and this is a two-fold excess over the number of positively charged groups.

For data set [2] the following is noted: cited from earlier work.
For a further data set, the target named is T1, NPR2 (Rattus norvegicus, UniProt P16067).
T1 construct: endogenous in cells; host or cells: RCS (rat chondrosarcoma) cells, wild-type and NPR2+/- clones
T1 sequence (P16067 17-1047): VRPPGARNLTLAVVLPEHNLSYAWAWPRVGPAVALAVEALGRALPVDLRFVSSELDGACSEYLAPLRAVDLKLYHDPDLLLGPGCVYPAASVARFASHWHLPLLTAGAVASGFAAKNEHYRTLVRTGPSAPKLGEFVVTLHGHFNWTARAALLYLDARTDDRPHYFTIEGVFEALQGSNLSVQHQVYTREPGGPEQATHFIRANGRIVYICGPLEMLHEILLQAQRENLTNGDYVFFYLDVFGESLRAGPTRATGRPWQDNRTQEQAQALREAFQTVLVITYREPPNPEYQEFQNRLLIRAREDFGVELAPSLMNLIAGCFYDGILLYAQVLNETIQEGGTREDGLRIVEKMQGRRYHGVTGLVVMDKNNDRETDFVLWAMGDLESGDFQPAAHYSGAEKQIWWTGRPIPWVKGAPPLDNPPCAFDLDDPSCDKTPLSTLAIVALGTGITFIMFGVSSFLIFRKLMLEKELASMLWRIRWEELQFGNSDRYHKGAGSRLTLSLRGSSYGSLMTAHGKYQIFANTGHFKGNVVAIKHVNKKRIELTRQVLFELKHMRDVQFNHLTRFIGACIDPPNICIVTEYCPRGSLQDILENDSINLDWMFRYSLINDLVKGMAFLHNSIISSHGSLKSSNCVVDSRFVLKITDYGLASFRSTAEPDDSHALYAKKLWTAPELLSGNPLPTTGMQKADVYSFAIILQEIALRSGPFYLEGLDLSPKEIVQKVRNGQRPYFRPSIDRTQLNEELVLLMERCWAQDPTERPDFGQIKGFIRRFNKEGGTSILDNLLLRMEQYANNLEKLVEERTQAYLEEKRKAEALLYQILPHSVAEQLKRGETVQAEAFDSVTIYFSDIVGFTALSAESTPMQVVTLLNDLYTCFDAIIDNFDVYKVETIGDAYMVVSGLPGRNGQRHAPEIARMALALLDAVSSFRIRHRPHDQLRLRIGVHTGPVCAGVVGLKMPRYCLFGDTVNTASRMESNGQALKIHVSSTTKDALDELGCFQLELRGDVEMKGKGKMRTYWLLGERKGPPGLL
In words: cGMP stimulation assay (CatchPoint Cyclic-GMP Fluorescent Assay) in NPR2 mutant RCS cells. The class given is cell-based. On the procedure:
To determine the effects of CNP on subjects with short stature resulting from NPR2 mutations, cellular models of NPR2 mutations were developed. Exemplary NPR2 mutations analyzed are set out in FIG. 5. Rat chondrosarcoma (RCS) cells having either a knockout of, or heterozygous loss of function mutations in, the NPR2 gene were made by RNP transfection into RCS cells using 125 ng NPR2 variants or wild-type NPR2 plasmid DNA transfected into RCS or HEK293 cells. Single cell clones were seeded and genotyped by Sanger sequencing. Cell models are able to reproduce published cGMP phenotypes of the different mutations.
The NPR2 clones were created by creating insertions and deletions in the first exon of NPR2 in RCS cells. The sequence of the first exon in NPR2 was confirmed by next-generation sequencing and is set out in FIG. 4. NPR2 mutant cells were tested for activity in response to CNP administration by a cGMP stimulation assay using a CatchPoint Cyclic-GMP Fluorescent Assay after treatment with 6 nM of Pro-Gly CNP37. Briefly, NIH3T3 cells (ATCC, CRL-1658) and NPR-transfected HEK293 cells were seeded at 60,000 cells/well in a 96-well plate (96-well black imaging plates, Grenier, #655090). RCS (rat chondrosarcoma) cells were seeded at 40,000 cells/well. Culture media was as follows: NIH3T3 culture media: DMEM high glucose, pyruvate (Thermo, 11995-073)+10% FBS+1× Pen Strep (abbrev P/S, Thermo, cat #15140122). NIH3T3 was the control system for the cGMP assay HEK293 culture media: EMEM+10% FBS+1×P/S+1×GMAX. RCS culture media: DMEM+10% FBS+1× Pen Strep. Serum free NIH3T3 media: DMEM+1×P/S for treatment of cells with IBMX (CAS 28822-58-4); Serum free NIH3T3 media with BSA: DMEM+1×P/S+0.5 mg/mL BSA (Thermo, A9418-100G) for treatment of cells with CNP.
Cells were incubated for 24 hours at 37° C., 5% CO2. For cells to be treated with CNP variants, plates were pre-treated with IBMX (Enzo life sciences, 89161-340, 1 g) 15 minutes prior to use. IBMX is a potent, non-specific inhibitor of phosphodiesterases. An 800 mM stock solution of IBMX is diluted in IBMX dilution media (serum-free media (DMEM+[…] mixed 1:1 with 1×PBS) to a 0.75 mM working stock.
For cell treatment, cells were removed from the incubator, growth media was removed from cells and cells treated with IBMX. 80 μL 0.75 mM IBMX was added to each well and cells returned to 37° C. incubator for 15 minutes. […]
The cGMP assay was carried out using a cGMP calibrator, rabbit anti-cGMP antibody and HRP-cGMP prepared as according to manufacturer's protocol. 40 μL of calibrator was added to wells of an anti-cGMP antibody coated plated, and 40 μL of lysate to be analyzed added to the appropriate wells. […] The plate was read for fluorescence intensity on a Spectramax M, or similar instrument, at excitation 530 nm and emission at 590 nm.

The subject of data set [3] is mouse model of Cardiofaciocutaneous syndrome using a Braf mutation (p.Q241R). The settings on record: in vivo; cited from earlier work.
Data set [4] concerns mice deficient in Nf1 in type II collagen producing cells. The settings on record: daily injections; cited from earlier work.
Another data set addresses T2, NPR—B (Homo sapiens, UniProt P20594).
T2 sequence (P20594 23-1047): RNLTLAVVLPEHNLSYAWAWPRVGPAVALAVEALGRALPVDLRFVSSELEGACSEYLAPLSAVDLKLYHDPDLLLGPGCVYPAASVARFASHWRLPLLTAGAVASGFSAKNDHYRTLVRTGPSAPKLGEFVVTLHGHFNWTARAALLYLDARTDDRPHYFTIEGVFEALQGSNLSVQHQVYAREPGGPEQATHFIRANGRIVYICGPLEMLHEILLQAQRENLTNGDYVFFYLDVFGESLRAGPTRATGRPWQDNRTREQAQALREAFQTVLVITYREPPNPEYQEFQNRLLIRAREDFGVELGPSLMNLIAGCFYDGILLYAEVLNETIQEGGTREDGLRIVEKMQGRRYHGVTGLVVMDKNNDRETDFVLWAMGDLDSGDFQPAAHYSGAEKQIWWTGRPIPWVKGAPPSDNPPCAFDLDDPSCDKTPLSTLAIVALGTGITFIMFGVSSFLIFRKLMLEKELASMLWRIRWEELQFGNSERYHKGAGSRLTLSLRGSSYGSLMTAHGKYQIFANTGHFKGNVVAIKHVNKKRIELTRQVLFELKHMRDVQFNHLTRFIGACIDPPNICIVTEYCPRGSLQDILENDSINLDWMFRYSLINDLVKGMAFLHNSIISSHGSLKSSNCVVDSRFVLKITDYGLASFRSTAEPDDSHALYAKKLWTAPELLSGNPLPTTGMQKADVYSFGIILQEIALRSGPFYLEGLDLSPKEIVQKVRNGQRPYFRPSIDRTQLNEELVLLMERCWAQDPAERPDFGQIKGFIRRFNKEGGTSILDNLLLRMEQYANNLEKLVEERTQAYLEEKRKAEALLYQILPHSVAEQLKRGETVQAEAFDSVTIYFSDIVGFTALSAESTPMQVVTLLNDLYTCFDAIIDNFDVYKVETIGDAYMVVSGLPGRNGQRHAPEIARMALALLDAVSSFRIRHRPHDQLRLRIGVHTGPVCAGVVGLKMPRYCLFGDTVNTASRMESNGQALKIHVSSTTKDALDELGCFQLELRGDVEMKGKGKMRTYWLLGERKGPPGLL
The settings on record: cited from earlier work.

For the compound `Nc1nc2c(ncn2[C@@H]2O[C@@H]3COP(=O)(O)O[C@H]3[C@H]2O)c(=O)[nH]1` [cGMP, guanosine 3′,5′ cyclic monophosphate], the EC50 with PRKG2 was 40 to 360 nM.

In the case of `O=C(O)c1cc2ccccc2c(Cc2c([O-])c(C(=O)O)cc3ccccc23)c1[O-].[Na+].[Na+]` [disodium pamoic acid], the solubility of counterion entry in data set [1] was “soluble”. For `CCCCCCCC/C=C\CCCCCCCC(=O)O` [oleic acid], in data set [2], the pKa is listed as 4-5. Also, the solubility of counterion result in data set [1] is “soluble”. Consider `CCCCC(CC)COC(=O)CC(C(=O)OCC(CC)CCCC)S(=O)(=O)[O-].[Na+]` (centres unmarked) [sodium docusate], for which the solubility of counterion entry in data set [1] is given as “soluble”. “CNP: C-type natriuretic peptide; in the cGMP assay cells were treated with Pro-Gly CNP37 (PGQEHPNARKYKGANKKGLSKGCFGLKLDRIGSMSGLGC; not fully specified (N-terminus, C-terminus); ends and bridges not checked)”: in the data set with NPR2 (cell model of NPR2 haploinsufficiency, exogenous CNP), the “rescue of NPR2 signaling” value is recorded as “dose-dependent rescue of NPR2 signaling”. For the same compound, in the data set with NPR2 (heterozygous NPR2 knockout cells), the “CNP dose able to achieve an intracellular cGMP concentration exceeding the EC50 range for PRKG2 activation” value was above 0.163 nM. Besides, the “CNP dose able to achieve the same cGMP concentration” value in the data set with NPR2 (wild-type cells) was determined as 0.040 nM. Also, the body length entry in data set [3] was “increases in body length”. Further, in data set [4], the ERK phosphorylation result is given as “decreased ERK phosphorylation” and the short stature result is given as “corrected the short stature”. As for “DLRVDTKSRAAWARLLQEHPNARKYKGANKKGLSKGCFGLKLDRIGSMSGLGC [CNP-53]”, the “binding to NPR—B” value with NPR—B is on record as “bind similarly”. As for GLSKGCFGLKLDRIGSMSGLGC [CNP-22], in the data set with NPR—B, the “binding to NPR—B” value is “bind similarly”. For “PGQEHPNARKYKGANKKGLSKGCFGLKLDRIGSMSGLGC (not fully specified (N-terminus, C-terminus); cysteine pairing not given here) [Pro-Gly-CNP37, CNP variant]”, the cGMP readout entry with NPR2 (NPR2+/− rat chondrosarcoma cell model, exogenous peptide (FIG. 3)) is recorded as “rescues cGMP readout”.
